The source of these data is patent US20190177371A1, “NOVEL MODULATORS OF MELANOCORTIN RECEPTORS” (ARIZONA BOARD OF REGENTS ON BEHALF OF THE UNIVERSITY OF …, priority 2014, published 2019).

Experiment [1] deals with T1, hMC1R (Homo sapiens, UniProt Q01726). Description: Adenylate cyclase (cAMP) assay in HEK293 cells expressing hMC1R.
For experiment [2], the target named is T2, hMC5R (Homo sapiens, UniProt P33032). Description: Adenylate cyclase (cAMP) assay in HEK293 cells expressing hMC5R.
Experiment [3] deals with T3, hMC4R (Homo sapiens, UniProt P32245). Kind of experiment: Adenylate cyclase (cAMP) assay in HEK293 cells expressing hMC4R.
Experiment [4] deals with T4, hMC3R (Homo sapiens, UniProt P41968). Description: Adenylate cyclase (cAMP) assay in HEK293 cells expressing hMC3R.
Experiment [5] has as its target T3, hMC4R. Description: Competitive binding assay with [125I]-NDP-α-MSH on whole HEK293 cells expressing hMC4R.
Protocol: (§1) The pharmacological characterization for the binding efficiencies greater than 70% are defined as competitive binding, binding efficiency less than 70% are non-competitive binding.
(§2) Receptor Binding Assay. Competition binding experiments were carried out using both of cloned cell line and melanoma cells (A375, ATCC). The whole HEK293 cells stably expressing human MC1, MC3, MC4, and MC5 receptors as described before. […] The assay medium was subsequently removed, the cells were washed once with basic medium, and then lysed by the addition of 100 μL of 0.1M NaOH and 100 μL of 1% Triton X-100.
In experiment [6] the target is T4, hMC3R. Description: Competitive binding assay with [125I]-NDP-α-MSH on whole HEK293 cells expressing hMC3R.
Protocol: as §1, §2
For experiment [7], the target named is T1, hMC1R. Description: Competitive binding assay with [125I]-NDP-α-MSH on whole HEK293 cells expressing hMC1R.
Protocol: as §1, §2
The target in experiment [8] is T2, hMC5R. Description: Competitive binding assay with [125I]-NDP-α-MSH on whole HEK293 cells expressing hMC5R.
Protocol: as §1, §2

T4 sequence (P41968 whole entry): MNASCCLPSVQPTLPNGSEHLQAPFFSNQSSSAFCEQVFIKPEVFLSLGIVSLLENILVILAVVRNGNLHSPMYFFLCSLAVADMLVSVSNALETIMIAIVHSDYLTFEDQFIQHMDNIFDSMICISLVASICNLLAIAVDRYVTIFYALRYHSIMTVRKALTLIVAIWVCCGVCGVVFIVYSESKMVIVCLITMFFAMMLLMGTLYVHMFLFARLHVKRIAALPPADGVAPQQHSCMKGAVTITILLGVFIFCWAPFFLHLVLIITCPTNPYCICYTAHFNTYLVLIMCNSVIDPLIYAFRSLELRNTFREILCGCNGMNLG
T3 sequence (P32245 whole entry): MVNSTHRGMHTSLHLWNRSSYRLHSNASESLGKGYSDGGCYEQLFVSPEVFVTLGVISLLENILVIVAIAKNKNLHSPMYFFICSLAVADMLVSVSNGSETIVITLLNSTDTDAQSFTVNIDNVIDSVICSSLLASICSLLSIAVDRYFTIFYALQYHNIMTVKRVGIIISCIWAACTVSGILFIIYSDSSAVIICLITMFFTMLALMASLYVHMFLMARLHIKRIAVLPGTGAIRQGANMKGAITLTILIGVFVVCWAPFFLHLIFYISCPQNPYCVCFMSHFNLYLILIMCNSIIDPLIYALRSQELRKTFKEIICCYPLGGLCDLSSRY
T2 sequence (P33032 whole entry): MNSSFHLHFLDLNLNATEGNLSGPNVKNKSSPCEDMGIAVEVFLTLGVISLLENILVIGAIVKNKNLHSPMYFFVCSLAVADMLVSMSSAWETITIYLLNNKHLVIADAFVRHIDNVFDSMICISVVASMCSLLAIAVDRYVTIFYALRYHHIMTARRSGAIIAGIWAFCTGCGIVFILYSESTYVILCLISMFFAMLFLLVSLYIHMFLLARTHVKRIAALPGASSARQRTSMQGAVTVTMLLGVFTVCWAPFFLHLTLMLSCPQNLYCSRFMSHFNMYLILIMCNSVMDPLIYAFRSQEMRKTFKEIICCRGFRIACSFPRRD
T1 sequence (Q01726 whole entry): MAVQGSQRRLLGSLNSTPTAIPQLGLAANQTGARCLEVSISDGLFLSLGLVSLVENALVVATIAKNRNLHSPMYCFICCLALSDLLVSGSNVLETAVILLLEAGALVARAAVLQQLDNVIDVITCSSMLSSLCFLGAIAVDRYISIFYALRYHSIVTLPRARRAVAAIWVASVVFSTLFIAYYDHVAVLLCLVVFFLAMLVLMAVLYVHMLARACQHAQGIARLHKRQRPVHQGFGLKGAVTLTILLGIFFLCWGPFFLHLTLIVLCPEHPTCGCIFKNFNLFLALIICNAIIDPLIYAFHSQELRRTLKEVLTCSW

Take “Ac-Nle-c[Asp-(NMe)His-nal-Arg-Trp-(NMe)Lys]-NH2 [Peptide 10]”: at hMC1R [1], the “functional (cAMP) activity at hMC1R (in words)” value (shortened to “functional … at hMC1R (in words)”) is given as “selective agonist activities”.

As for “Ac-Nle-c[Asp-His-(NMe)nal-(NMe)Arg-(NMe)Trp-Lys]-NH2 [Peptide 23]”, the “functional … at hMC1R (in words)” value on hMC1R [1] is on record as “all functional activities are abolished”. At hMC5R [2], the “functional (cAMP) activity at hMC5R (in words)” value (from here on “functional … at hMC5R (in words)”) is “all functional activities are abolished”. Also, the “functional (cAMP) activity at hMC4R (in words)” value (“functional … at hMC4R (in words)” below) on hMC4R [3] is on record as “all functional activities are abolished”. Also, the “functional (cAMP) activity at hMC3R (in words)” value (“functional … at hMC3R (in words)” below) on hMC3R [4] is on record as “all functional activities are abolished”.

Regarding “Ac-Nle-c[Asp-His-nal-(NMe)Arg-Trp-(NMe)Lys]-NH2 [Peptide 8]”, the “binding affinity at hMC4R (in words)” value at hMC4R [5] is “decreases by 3 orders of magnitude”. The “binding affinity at hMC3R (in words)” value at hMC3R [6] is reported as “increases”. Further, on hMC1R [1], the “functional … at hMC1R (in words)” value is “potent agonist”. Also, the “functional … at hMC3R (in words)” value at hMC3R [4] is “potent antagonist”.

Regarding “Ac-Nle-c[Asp-(NMe)His-(NMe)nal-Arg-Trp-(NMe)Lys]-NH2 [Peptide 22]”, the “functional … at hMC1R (in words)” value at hMC1R [1] was “all functional activities are abolished”. Further, the “functional … at hMC5R (in words)” value at hMC5R [2] is given as “all functional activities are abolished”. Moreover, the “functional … at hMC4R (in words)” value at hMC4R [3] is “all functional activities are abolished”. At hMC3R [4], the “functional … at hMC3R (in words)” value was “all functional activities are abolished”.

“Ac-Nle-c[Asp-(NMe)His-(NMe)nal-Arg-Trp-Lys]-NH2 [Peptide 5]”: at hMC4R [5], the “binding affinity at hMC4R (in words)” value is “drastical loss of binding affinity”.

With “Ac-Nle-c[Asp-(NMe)His-nal-(NMe)Arg-(NMe)Trp-Lys]-NH2 [Peptide 24]”, on hMC1R [1], the “functional … at hMC1R (in words)” value was “selective partial agonist activity”. Besides, the “functional … at hMC5R (in words)” value at hMC5R [2] was “selective partial agonist activity”.

In the case of “Ac-Nle-c[Asp-His-(NMe)nal-(NMe)Arg-Trp-(NMe)Lys]-NH2 [Peptide 20]”, on hMC1R [1], the “functional … at hMC1R (in words)” value was “almost a universal antagonist activity”. For the same substance, the “functional … at hMC5R (in words)” value on hMC5R [2] was “almost a universal antagonist activity”. The “functional … at hMC4R (in words)” value at hMC4R [3] was “almost a universal antagonist activity”. On hMC3R [4], the “functional … at hMC3R (in words)” value is “very weak activity”.

As for “Ac-Nle-c[Asp-His-nal-Arg-(NMe)Trp-Lys]-NH2 [Peptide 3]”, on hMC1R [1], the “functional … at hMC1R (in words)” value was “greater loss of functional activity”. In addition, the “functional … at hMC5R (in words)” value on hMC5R [2] is listed as “selective agonist”.

For “Ac-Nle-c[Asp-His-(NMe)nal-Arg-(NMe)Trp-(NMe)Lys]-NH2 [Peptide 18]”, the “functional … at hMC1R (in words)” value at hMC1R [1] is “full agonist activity”. Also, the “functional … at hMC4R (in words)” value on hMC4R [3] is on record as “partial agonist”.

“Ac-Nle-c[Asp-(NMe)His-nal-Arg-(NMe)Trp-Lys]-NH2 [Peptide 13]”: at hMC5R [2], the “functional … at hMC5R (in words)” value was “moderate selective antagonist”.

On to “Ac-Nle-c[Asp-His-(NMe)nal-Arg-Trp-(NMe)Lys]-NH2 [Peptide 9]”, for which the “binding affinity at hMC1R (in words)” value on hMC1R [7] is recorded as “drastically lost”. In addition, the “binding affinity at hMC4R (in words)” value at hMC4R [5] was “drastically lost”. For the same substance, the “binding affinity at hMC3R (in words)” value at hMC3R [6] is “drastically lost”. Besides, the “functional … at hMC5R (in words)” value on hMC5R [2] is on record as “very selective antagonist”.

Consider “Ac-Nle-c[Asp-(NMe)His-(NMe)nal-Arg-Trp-Lys]-NH2 [Peptide 16]”, for which, on hMC1R [1], the “functional … at hMC1R (in words)” value is “universal antagonist”. In addition, on hMC5R [2], the “functional … at hMC5R (in words)” value is on record as “universal antagonist”. At hMC4R [3], the “functional … at hMC4R (in words)” value is reported as “universal antagonist”. Besides, at hMC3R [4], the “functional … at hMC3R (in words)” value is listed as “universal antagonist”.

As to “Ac-Nle-c[Asp-(NMe)His-nal-Arg-(NMe)Trp-(NMe)Lys]-NH2 [Peptide 19]”, the “binding affinity at hMC1R (in words)” value at hMC1R [7] is listed as “good binding”. Also, the “binding affinity at hMC4R (in words)” value on hMC4R [5] is recorded as “good binding”. At hMC3R [6], the “binding affinity at hMC3R (in words)” value is recorded as “good binding”. Moreover, the “binding affinity at hMC5R (in words)” value at hMC5R [8] is recorded as “good binding”. Further, on hMC1R [1], the “functional … at hMC1R (in words)” value was “no activities”. Also, the “functional … at hMC5R (in words)” value at hMC5R [2] is given as “no activities”. At hMC4R [3], the “functional … at hMC4R (in words)” value is reported as “no activities”. Also, at hMC3R [4], the “functional … at hMC3R (in words)” value is recorded as “no activities”.

Take “Ac-Nle-c[Asp-His-(NMe)nal-(NMe)Arg-Trp-Lys]-NH2 [Peptide 14]”: the “functional … at hMC1R (in words)” value on hMC1R [1] is recorded as “partial agonistic activities”. Further, at hMC4R [3], the “functional … at hMC4R (in words)” value is “partial agonistic activities”. Further, the “functional … at hMC3R (in words)” value on hMC3R [4] is recorded as “partial agonistic activities”.

As for “Ac-Nle-c[Asp-(NMe)His-nal-(NMe)Arg-Trp-(NMe)Lys]-NH2 [Peptide 21]”, the “functional … at hMC5R (in words)” value on hMC5R [2] is given as “retains agonist activity”.
